Data reported in patent US20080286216A1, “Surface Active Calcium Phosphates” (priority 2005, published 2008).

What was measured:
[1] = tested on: people living in fluoridated areas; conditions: fluoride in drinking water; cited from earlier work
[2] = tested on: human dental plaque microcosm biofilms; assay: Tooth remineralisation: mineral deposition in dental plaque microcosm biofilms (Wong et al. method); assay type: cell-based; conditions: conclusion of Example 16
Procedure: This example investigated the tooth remineralisation properties of a complex according to the invention.
BMM: basal medium mucin models the nutrients present in saliva and was prepared following Wong et al, “Calcium phosphate deposition in human dental plaque microcosm biofilms induced by a ureolytic pH-rise procedure” Archives of Oral Biology 47 (2002) 779-790
The complex according to the invention was tested for its tooth remineralisation properties using the methodology described in Wong et al, “Calcium phosphate deposition in human dental plaque microcosm biofilms induced by a ureolytic pH-rise procedure” Archives of Oral Biology 47 (2002) 779-790.
Ca & P units: mmol/g protein, F units: μmol/g protein
Mineralisation regime: 14 days mineralisation; 3 doses of testing composition and 10% sucrose daily

| Molecule | aesthetically unacceptable changes to the appearance of teeth [1] | incidence of fluorosis [1] | tooth remineralisation properties [2] |
| --- | --- | --- | --- |
| F [fluoride] | at least 12.5% | ≤ 48% | – |
| Stearamidopropyl Dimethylamine Glycerophosphate [Example 14] | – | – | has tooth remineralisation properties |
